In paper PMC12627862, “Therapeutic targeting of endothelial calcium signaling accelerates the resolution of lung injury” (Signal Transduction and Targeted Therapy, 2025):
Starred links: 1 amine or outer side, 2 acyl side, 3 side chain; linkers in the order of their positions; H or OH if unused. Non-standard residues stand in square brackets, D forms with d. Residues, ends and D or L forms follow the SMILES beside them. ξ: configuration not given here. Oic = O=C(O)[C@@H]1C[C@@H]2CCCC[C@@H]2N1; GABOB(3R) = O=C(C[C@@H](O)CN[*:1])[*:2]; tBuAla = CC(C)(C)C[C@H](N)C(=O)O; ξVal(3-OH) = CC(C)(O)C(N)C(=O)O; 4Amb = NCc1ccc(C(=O)O)cc1

What was measured:
Pseudomonas aeruginosa = assay: I.t. P. aeruginosa-induced pneumonia; assay type: in vivo, mouse
Source text: Most ARDS cases arise secondary to pneumonia, in which infectious agents directly target the alveolar epithelium. Damage to these epithelial cells disrupts the integrity of the alveolar–capillary barrier, leading to protein-rich pulmonary edema and widespread inflammation, two hallmark features of diffuse alveolar damage. Because endothelial barrier disruption is a downstream consequence in this context, we also evaluated the benefits of VT-109 treatment in a model of Pseudomonas aeruginosa–induced lung injury, the most commonly acquired hospital-associated pneumonia. Mice were infected with a sublethal intratracheal dose of 5 × 10^5 CFU Pseudomonas aeruginosa and treated with a moderately efficacious dose of VT-109 (250 nmol/kg bw) at 5 hours post-challenge. The lung tissues were collected at 24 and 48 hours for histopathological analysis of acute lung injury, neutrophil influx, and bacterial counts in BALF (Fig. 5k–n and Supplementary Fig. 4j).
Mice (CD1) were anesthetized by intraperitoneal injection of xylazine and positioned supine on a sterile surgical surface. A small midline incision was made in the neck to expose the trachea. GFP-expressing Pseudomonas aeruginosa (PA) was cultured overnight in LB broth supplemented with carbenicillin (100 µg/mL). A total volume of 30 µL PBS containing 0.5 × 10⁶ colony-forming units (CFU) was injected directly into the trachea using a sterile 28G insulin syringe. Following intratracheal instillation, mice received VT-109 (250 nmol/kg body weight) or vehicle by IV at 5- and 24-hours post-infection. Lung tissues were collected at 24 and 48 hours to assess treatment effects. The left lung was inflated with fixative and harvested for histological analysis, while the right lung was collected for bacterial quantification. For CFU analysis, the right lung was homogenized in 1 mL of sterile PBS using a bead-based tissue homogenizer. Homogenates were serially diluted and plated on LB agar containing carbenicillin (100 µg/mL). Plates were incubated overnight at 37 °C, and CFUs were counted the following day. […]

[1] = test system: CD1 mice, cecal ligation and puncture; assay: Polymicrobial sepsis model (CLP); assay type: in vivo, mouse
full-length EB3 = full-length EB3 (Homo sapiens, UniProt Q9UPY8); assay: STD-NMR binding to EB3 (amplification factor); conditions: versus the linear precursor
Sequence of full-length EB3 (Q9UPY8 whole entry, species assumed): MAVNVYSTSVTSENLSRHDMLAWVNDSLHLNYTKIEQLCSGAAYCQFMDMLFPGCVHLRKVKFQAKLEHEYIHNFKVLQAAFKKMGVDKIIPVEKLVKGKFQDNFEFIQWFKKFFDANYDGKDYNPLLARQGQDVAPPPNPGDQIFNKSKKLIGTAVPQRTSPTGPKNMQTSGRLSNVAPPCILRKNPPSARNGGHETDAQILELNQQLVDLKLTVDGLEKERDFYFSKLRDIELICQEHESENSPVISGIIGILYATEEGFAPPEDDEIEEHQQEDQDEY
Source text: To screen these drug-like compounds for binding to full-length EB3, we employed the saturation transfer difference (STD)-NMR approach as a cell-free throughput screening platform. We were unable to use other methods, such as isothermal titration calorimetry, because of the nature of the EB3 dimer, which dynamically exchanges chains within the dimer—a process influenced by the binding of the C-terminus to its partners, such as the tested peptides. To analyze the STD-NMR data quantitatively, we established the amplification factor (AMPSTD), a change in signal intensity upon saturation that is normalized to ligand abundance (Fig. 1a), as a measure of the binding affinity of the compounds to the target protein EB3. […]
Fig. 1 NMR-based characterization of EB3 inhibitors. a The saturation transfer difference (STD) NMR approach was used to profile peptide binding to EB3. […] The amplification ratio was calculated as follows: AMPSTD = ISTD/INO SAT x {L}, where ISTD is the highest STD signal intensity measured with saturation; INO SAT is the intensity measured for the same signal without saturation; and {L} is the peptide concentration. c ^1H-^15N HSQC spectrum of ^15N-enriched EB3_200-281 alone (black) and in the presence of a 1:1 molar ratio of 109 (cyan). […]

in vitro = conditions: mouse, plasma
Method: Stability assay of peptides in blood plasma of rodents, dogs, and humans. For the plasma stability assay, 5 μM of each peptide was incubated with species-specific plasma for 120 minutes and samples were taken at the required time points. Positive control used were molecules with known stability: enalapril, propantheline, and warfarin. The amount of test compound remaining at each time point was analyzed by LC-MS/MS. Appropriate control compounds for each species were also incubated.

[2] = 24 hours after CLP, 18-gauge, n = 3
[3] = 24 hours after CLP, 2 µmol/kg bw i.v. 5 hours post-surgery, n = 5
[4] = BAL 24 hours after CLP, treatment at 5 hours post-surgery, Mean±Std, n = 8–10
[5] = CLP, VT-109 monotherapy 2 µmol/kg bw i.v.
[6] = PF (peritoneal fluid), head says BAL, CLP, Mean±Std

For `CC(C)(C)C[C@@H]1NC(=O)C[C@@H](O)CNC(=O)[C@@H]2C[C@@H]3CCCC[C@@H]3N2C(=O)[C@H](CC(C)(C)C)NC(=O)c2ccc(cc2)CNC(=O)C(C(C)(C)O)NC(=O)[C@@H](Cc2ccccc2)NC1=O` (stereo partly drawn) [compound 109, (1^2S,1^3aS,1^7aS,3S,10S,13R,16S,20R)-13-benzyl-20-hydroxy-10-(2-hydroxypropan-2-yl)-3,16-dineopentyl-1^2,1^3,1^3a,1^4,1^5,1^6,1^7,1^7a-octahydro-1^1H-4,8,11,14,17,22-hexaaza-1(1,2)-indola-6(1,4)-benzenacyclotricosaphane-2,5,9,12,15,18,23-heptaone.] (cyclo([4Amb][tBuAla][Oic][GABOB(3R)][tBuAla][dF][ξVal(3-OH)])), the “neutrophils in the lung tissues” value (Pseudomonas aeruginosa; 5 × 10^5 CFU i.t., 250 nmol/kg bw at 5 hours post-challenge, 24 and 48 hours) was “far fewer neutrophils”, the “lung injury (histopathology)” value (Pseudomonas aeruginosa; 5 × 10^5 CFU i.t., 250 nmol/kg bw, 24 and 48 hours) was “appeared uninjured” and the bacterial counts (Pseudomonas aeruginosa; both time points, did not reach statistical significance) was “modest reduction”. The “bacterial counts in the blood or peritoneal fluid” value ([1]; 24 hours after CLP) was “did not affect”, the “phosphorylation of FOXM1 at Ser715” value [1, 2] was “increased phosphorylation” and the “sepsis-induced changes of FOXM1, FOXO1, E2F3, β-catenin and p21 in lung tissue (Western blot)” value [1, 2] was “reversed these changes”. The “VE-cadherin and occludin expression” value ([1]; 24 hours after CLP, 18-gauge, to the baseline levels of sham mice) was “restored”, the “alanine aminotransferase (ALT), blood” value [1, 3] was “reduced levels” and the “blood urea nitrogen (BUN)” value [1, 3] was “reduced levels”. For the same compound, the “bacterial colony counts in bronchoalveolar lavage fluid (BALF)” value ([1]; 24 hours after CLP, VT-109 monotherapy versus vehicle) was “markedly reduced”, the “BAL Cytokine mGM-CSF” value [1, 4] was 1.21 ± 0.70 pg/mL and the “BAL Cytokine mIFNγ” value [1, 4] was 0.49 ± 0.34 pg/mL. For the same compound, the “BAL Cytokine mIL-1a” value [1, 4] was 0.14 ± 0.00 pg/mL, the “BAL Cytokine mIL-1b” value [1, 4] was 1.59 ± 1.01 pg/mL and the “BAL Cytokine mIL-4” value [1, 4] was 2.79 ± 1.03 pg/mL. The “BAL Cytokine mIL-6” value [1, 4] was 282.12 ± 522.24 pg/mL, the “BAL Cytokine mIL-10” value [1, 4] was 2.19 ± 2.95 pg/mL and the “BAL Cytokine mIL-12” value [1, 4] was 16.99 ± 7.90 pg/mL. The “BAL Cytokine mIL-17” value [1, 4] was 0.14 ± 0.00 pg/mL, the “BAL Cytokine mKC” value [1, 4] was 609.75 ± 878.78 pg/mL and the “BAL Cytokine mMCP-1” value [1, 4] was 19.17 ± 28.01 pg/mL. The “BAL Cytokine mMIP-1α” value [1, 4] was 1.16 ± 1.31 pg/mL, the “BAL Cytokine mRANTES” value [1, 4] was 2.55 ± 5.23 pg/mL and the survival rate ([1]; CLP 18-gauge, VT-109 monotherapy 2 µmol/kg bw i.v., initiated 5 hours post-surgery) was “significantly improved the survival rate”. For the same compound, the survival ([1]; CLP 18-gauge, monotherapy: VT-109 0.5 µmol/kg bw or enrofloxacin 5 mg/kg bw) was “neither antibiotics nor VT-109 monotherapy (0.5 µmol/kg bw) significantly improved survival”, the “acute lung injury (H&E, ALI score)” value [1, 5] was “prevented the development of acute lung injury” and the “neutrophil recruitment into lung tissue (Ly6G)” value [1, 5] was “markedly suppressed”. For the same compound, the “Cytokine mGM-CSF” value [1, 6] was 15.75 ± 20.22 pg/mL, the “Cytokine mIFNγ” value [1, 6] was 4.39 ± 3.00 pg/mL and the “Cytokine mIL-1a” value [1, 6] was 104.93 ± 94.65 pg/mL. The “Cytokine mIL-1b” value [1, 6] was 229.14 ± 237.82 pg/mL, the “Cytokine mIL-3” value [1, 6] was 0.28 ± 0.00 pg/mL and the “Cytokine mIL-4” value [1, 6] was 6.90 ± 0.83 pg/mL. For the same compound, the “Cytokine mIL-5” value [1, 6] was 5.06 ± 2.77 pg/mL, the “Cytokine mIL-6” value [1, 6] was 46833 ± 65942 pg/mL and the “Cytokine mIL-10” value [1, 6] was 432.67 ± 490.14 pg/mL. For the same compound, the “Cytokine mIL-12” value [1, 6] was 57.48 ± 43.37 pg/mL, the “Cytokine mIL-17” value [1, 6] was 7.20 ± 5.26 pg/mL and the “Cytokine mKC” value [1, 6] was 24611 ± 34486 pg/mL. The “Cytokine mMCP-1” value [1, 6] was 16338 ± 17531 pg/mL, the “Cytokine mMIP-1α” value [1, 6] was 5136 ± 8056 pg/mL and the “Cytokine mRANTES” value [1, 6] was 382.32 ± 397.78 pg/mL. The “Cytokine mTNFα” value [1, 6] was 29.39 ± 31.64 pg/mL, the “improvement of EB3 binding by head-to-tail cyclization” value (full-length EB3) was “approximately 4 fold” and the half-life at 5 μM (in vitro) was > 8 h. The remaining at 2 h, 5 μM (in vitro) was 89.8%.
